Patent US9708333B2, “Fused bicyclic 1,2,4-triazine compounds as TAM inhibitors” (Incyte Corporation, priority 2015, dated 2017)
pIC50: −log10 of the molar value.

How the values were obtained:
[1] = biological target: Tyro3 (Homo sapiens (Human), UniProt Q06418); assay: TAM Enzymatic Assay (HTRF), Tyro3; assay type: biochemical; conditions: 0.366 nM Tyro3, 60 min
Procedure: The kinase assay buffer contained 50 mM HEPES, pH7.5, 10 mM MgCl2, 1 mM EGTA, 0.01% NP-40 and 2 mM DTT. 0.1 ul test compounds dissolved in DMSO were transferred from compound plates to white 384-well assay plates (Greiner [sequence] plates). […] 4 ul enzyme solution (or assay buffer for the enzyme blank) was added to the appropriate wells in each plate, and then 4 ul/well substrate solution was added to initiate the reaction. The plate was protected from light and incubated at room temperature for 60 min. […] The plate was incubated for 1 h at room temperature, and HTRF (homogenous time resolved fluorescence) signal was measured on a PHERAstar FS plate reader (BMG labtech). Percentage of inhibition was calculated for each concentration and IC50 value was generated from curve fitting with GraphPad Prism software.

[2] = biological target: phosphor-Axl (Homo sapiens (Human), UniProt P30530); assay: TAM Enzymatic Assay (HTRF), phosphor-Axl; assay type: biochemical; conditions: 5.1 nM autophosphorylated Axl, 60 min; read-out: Phos-Axl IC50
[3] = biological target: c-Mer (Homo sapiens (Human), UniProt Q12866); assay: TAM Enzymatic Assay (HTRF), c-Mer; assay type: biochemical; conditions: 0.0625 nM c-Mer, ATP-containing substrate solution, 60 min
[4] = biological target: PI3Kδ (Homo sapiens (Human), UniProt O00329); conditions: cited from earlier work
Chain of PI3Kδ (O00329 whole entry, species assumed): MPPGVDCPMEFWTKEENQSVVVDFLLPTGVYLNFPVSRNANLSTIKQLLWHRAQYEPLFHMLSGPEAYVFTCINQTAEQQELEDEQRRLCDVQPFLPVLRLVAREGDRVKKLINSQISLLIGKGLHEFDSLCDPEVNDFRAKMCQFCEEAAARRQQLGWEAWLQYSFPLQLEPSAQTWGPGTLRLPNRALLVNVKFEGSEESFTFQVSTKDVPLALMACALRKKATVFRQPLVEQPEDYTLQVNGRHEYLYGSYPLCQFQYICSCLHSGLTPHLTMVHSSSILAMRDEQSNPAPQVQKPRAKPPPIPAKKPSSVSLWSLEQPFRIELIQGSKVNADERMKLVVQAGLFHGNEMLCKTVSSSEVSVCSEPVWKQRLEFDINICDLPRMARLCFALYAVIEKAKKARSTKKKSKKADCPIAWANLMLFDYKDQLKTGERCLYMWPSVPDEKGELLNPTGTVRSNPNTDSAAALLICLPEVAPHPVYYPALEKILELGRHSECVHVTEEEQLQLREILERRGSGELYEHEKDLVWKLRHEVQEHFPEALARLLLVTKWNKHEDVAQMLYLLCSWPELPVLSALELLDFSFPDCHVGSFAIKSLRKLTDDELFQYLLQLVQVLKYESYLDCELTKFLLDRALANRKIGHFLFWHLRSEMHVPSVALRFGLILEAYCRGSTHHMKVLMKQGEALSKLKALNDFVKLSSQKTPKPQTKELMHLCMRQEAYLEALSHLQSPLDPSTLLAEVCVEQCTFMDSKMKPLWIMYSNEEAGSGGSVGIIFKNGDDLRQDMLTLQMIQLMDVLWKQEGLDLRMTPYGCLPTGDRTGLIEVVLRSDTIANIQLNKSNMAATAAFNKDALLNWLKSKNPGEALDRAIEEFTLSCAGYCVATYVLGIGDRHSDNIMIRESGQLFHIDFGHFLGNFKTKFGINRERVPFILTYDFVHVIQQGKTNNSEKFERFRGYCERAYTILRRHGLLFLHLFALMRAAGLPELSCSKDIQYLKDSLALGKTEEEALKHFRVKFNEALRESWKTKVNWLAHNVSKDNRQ
Chain of PI3Kδ (P27986 whole entry partner, species assumed): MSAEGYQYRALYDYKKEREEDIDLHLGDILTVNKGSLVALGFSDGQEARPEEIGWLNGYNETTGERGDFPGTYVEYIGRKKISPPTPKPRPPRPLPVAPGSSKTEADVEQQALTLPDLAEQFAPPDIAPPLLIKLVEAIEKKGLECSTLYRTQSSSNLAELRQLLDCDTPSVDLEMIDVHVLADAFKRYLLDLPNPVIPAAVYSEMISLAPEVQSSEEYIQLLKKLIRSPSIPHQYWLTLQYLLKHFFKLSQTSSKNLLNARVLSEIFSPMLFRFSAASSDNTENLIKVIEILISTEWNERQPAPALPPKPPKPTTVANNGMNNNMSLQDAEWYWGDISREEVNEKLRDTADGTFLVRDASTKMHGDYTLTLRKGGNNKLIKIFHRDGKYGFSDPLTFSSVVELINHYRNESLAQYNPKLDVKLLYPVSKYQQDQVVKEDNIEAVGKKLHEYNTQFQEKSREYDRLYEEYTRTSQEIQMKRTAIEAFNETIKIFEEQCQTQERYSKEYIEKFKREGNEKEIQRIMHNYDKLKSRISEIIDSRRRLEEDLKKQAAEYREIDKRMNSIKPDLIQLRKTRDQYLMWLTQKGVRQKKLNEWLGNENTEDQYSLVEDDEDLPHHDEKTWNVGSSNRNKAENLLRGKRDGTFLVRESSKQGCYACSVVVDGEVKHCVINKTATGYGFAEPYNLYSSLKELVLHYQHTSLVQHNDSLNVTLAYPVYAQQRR

Chain of phosphor-Axl (P30530 26-894): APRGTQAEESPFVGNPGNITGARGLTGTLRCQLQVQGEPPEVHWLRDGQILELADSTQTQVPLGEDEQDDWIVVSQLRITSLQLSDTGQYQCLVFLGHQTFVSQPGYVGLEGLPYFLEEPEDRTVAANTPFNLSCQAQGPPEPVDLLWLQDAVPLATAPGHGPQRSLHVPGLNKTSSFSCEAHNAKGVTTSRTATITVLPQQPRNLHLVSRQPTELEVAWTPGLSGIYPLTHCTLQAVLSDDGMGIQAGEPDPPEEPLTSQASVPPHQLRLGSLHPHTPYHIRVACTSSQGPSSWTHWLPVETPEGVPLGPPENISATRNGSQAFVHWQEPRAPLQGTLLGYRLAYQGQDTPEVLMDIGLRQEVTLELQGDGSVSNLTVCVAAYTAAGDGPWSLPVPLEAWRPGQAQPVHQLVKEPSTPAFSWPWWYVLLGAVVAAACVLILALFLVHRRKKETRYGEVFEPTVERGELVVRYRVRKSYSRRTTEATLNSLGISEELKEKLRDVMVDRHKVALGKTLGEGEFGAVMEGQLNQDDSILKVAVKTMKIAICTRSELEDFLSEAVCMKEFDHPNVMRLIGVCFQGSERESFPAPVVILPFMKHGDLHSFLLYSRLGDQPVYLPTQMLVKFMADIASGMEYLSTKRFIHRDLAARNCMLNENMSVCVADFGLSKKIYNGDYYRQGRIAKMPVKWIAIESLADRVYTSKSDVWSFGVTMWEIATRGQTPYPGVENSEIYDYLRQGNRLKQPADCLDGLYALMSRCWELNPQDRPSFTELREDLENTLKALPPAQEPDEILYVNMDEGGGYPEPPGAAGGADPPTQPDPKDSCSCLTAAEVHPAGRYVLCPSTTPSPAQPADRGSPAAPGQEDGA
Chain of Tyro3 (Q06418 41-890): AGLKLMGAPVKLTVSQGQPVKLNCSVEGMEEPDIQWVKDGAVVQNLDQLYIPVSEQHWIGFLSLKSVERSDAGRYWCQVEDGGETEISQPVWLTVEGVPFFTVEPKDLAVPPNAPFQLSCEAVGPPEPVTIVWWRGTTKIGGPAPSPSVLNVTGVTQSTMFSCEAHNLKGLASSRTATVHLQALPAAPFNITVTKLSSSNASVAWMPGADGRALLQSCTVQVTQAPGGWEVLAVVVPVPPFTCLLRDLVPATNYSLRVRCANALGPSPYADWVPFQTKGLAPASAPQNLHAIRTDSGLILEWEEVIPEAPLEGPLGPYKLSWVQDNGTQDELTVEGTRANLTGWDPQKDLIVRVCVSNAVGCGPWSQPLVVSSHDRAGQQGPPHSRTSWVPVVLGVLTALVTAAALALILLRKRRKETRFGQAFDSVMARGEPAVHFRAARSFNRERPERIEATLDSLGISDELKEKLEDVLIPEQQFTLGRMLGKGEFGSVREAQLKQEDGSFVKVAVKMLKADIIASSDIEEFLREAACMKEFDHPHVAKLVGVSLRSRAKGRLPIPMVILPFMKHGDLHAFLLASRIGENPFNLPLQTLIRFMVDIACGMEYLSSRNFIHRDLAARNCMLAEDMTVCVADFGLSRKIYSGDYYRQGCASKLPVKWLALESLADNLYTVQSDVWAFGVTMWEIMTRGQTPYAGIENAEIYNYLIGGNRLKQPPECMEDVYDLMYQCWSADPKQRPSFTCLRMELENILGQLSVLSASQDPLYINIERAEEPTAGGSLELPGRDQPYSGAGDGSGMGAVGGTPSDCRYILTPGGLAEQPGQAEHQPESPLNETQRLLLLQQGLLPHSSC
Chain of c-Mer (Q12866 21-999): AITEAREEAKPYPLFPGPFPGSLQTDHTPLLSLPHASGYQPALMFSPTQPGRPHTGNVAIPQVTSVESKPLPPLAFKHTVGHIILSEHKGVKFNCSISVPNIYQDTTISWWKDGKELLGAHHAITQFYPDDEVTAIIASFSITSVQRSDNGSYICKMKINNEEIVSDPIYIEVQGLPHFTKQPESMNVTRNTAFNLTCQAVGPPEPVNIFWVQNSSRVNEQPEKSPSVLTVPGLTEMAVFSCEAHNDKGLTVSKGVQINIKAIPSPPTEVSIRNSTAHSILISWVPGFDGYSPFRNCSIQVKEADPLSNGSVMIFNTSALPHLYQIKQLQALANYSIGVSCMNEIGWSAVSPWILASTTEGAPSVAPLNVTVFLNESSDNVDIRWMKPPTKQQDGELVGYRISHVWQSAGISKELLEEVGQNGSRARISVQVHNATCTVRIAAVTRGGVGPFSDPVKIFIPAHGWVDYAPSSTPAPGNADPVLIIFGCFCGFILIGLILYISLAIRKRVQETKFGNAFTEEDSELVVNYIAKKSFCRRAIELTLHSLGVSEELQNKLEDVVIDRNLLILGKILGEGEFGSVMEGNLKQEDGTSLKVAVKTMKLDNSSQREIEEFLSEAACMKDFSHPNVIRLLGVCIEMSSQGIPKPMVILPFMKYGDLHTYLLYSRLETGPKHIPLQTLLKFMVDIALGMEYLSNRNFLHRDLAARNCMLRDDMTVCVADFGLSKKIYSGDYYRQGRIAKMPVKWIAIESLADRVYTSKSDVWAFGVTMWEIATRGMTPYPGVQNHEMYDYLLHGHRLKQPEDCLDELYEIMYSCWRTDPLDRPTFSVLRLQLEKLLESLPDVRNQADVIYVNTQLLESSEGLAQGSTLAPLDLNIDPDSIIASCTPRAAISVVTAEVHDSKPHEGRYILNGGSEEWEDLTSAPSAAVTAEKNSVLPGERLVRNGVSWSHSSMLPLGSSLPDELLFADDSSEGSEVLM

CCCCNc1ncc2c(-c3ccc(N4CCOCC4)c(F)c3)nc(C3CCC(O)CC3)n2n1 (single isomer, unassigned) [7 (1st peak), 4-[2-(Butylamino)-5-(3-fluoro-4-morpholin-4-ylphenyl)imidazo[5,1-f][1,2,4]triazin-7-yl]cyclohexanol]
pIC50 [1]: 6.00 to 6.30
pIC50 [2]: 6.30 to 7.00

CCCCNc1ncc2c(-c3ccc(N4CCOCC4)c(F)c3)nc(C3CCC(O)CC3)n2n1 (single isomer, unassigned) [7 (2nd peak), 4-[2-(Butylamino)-5-(3-fluoro-4-morpholin-4-ylphenyl)imidazo[5,1-f][1,2,4]triazin-7-yl]cyclohexanol]
pIC50 [2]: < 6.00

CCCCNc1ncc2c(-c3ccc(CN4CCN(C)CC4)cc3)nc([C@H]3CC[C@H](O)CC3)n2n1 [1 (1st peak, trans-), trans-4-(2-(Butylamino)-5-{4-[(4-methylpiperazin-1-yl)methyl]phenyl}imidazo[5,1-f][1,2,4]triazin-7-yl)cyclohexanol]
pIC50 [1]: 6.30 to 7.00
pIC50 [3]: ≥ 7.00
pIC50 [2]: ≥ 7.00

CCCCNc1ncc2c(-c3ccc(CN4CCOCC4)cc3)nc([C@H]3CC[C@@H](O)CC3)n2n1 [2 (2nd peak, cis-), cis-4-{2-(Butylamino)-5-[4-(morpholin-4-ylmethyl)phenyl]imidazo[5,1-f][1,2,4]triazin-7-yl}cyclohexanol]
pIC50 [1]: 6.30 to 7.00
pIC50 [3]: ≥ 7.00
pIC50 [2]: 6.30 to 7.00

COc1c(C(C)n2nc(C)c3c(N)ncnc32)cc(Cl)c(C#N)c1C1CN(C[C@H](C)O)C1 (stereo partly drawn) [Compound 29, 4-[1-(4-amino-3-methyl-1H-pyrazolo[3,4-d]pyrimidin-1-yl)ethyl]-6-chloro-2-{1-[(2S)-2-hydroxypropyl]azetidin-3-yl}-3-methoxybenzonitrile]
pIC50 [4]: > 7.30

COc1c(C(C)n2nc(C)c3c(N)ncnc32)cc(Cl)c(C#N)c1C1CN(CCO)C1 (centres unmarked) [Compound 30, 4-[1-(4-amino-3-methyl-1H-pyrazolo[3,4-d]pyrimidin-1-yl)ethyl]-6-chloro-2-[1-(2-hydroxyethyl)azetidin-3-yl]-3-methoxybenzonitrile]
pIC50 [4]: > 7.30
